Usually inhibition stands for the percentage by which the read-out fell short of the control.

Activity calls are given as the source filed them. The calls are words filed in the database; no cut-off is given here.

The target in assay [1] is T1, Ras-related C3 botulinum toxin substrate 1/T-lymphoma invasion and metastasis-inducing protein 1 (Homo sapiens) (UniProt P63000+Q13009). Kind of assay: Inhibition of Rac1-Tiam1 protein-protein interaction in human A617 cells assessed as reduction in intracellular Rac1-GTP levels at 1 to 10 uM after 4 hrs by G-LISA assay. Type of assay: cell-based.
Assay [2] concerns the target T1, Ras-related C3 botulinum toxin substrate 1/T-lymphoma invasion and metastasis-inducing protein 1 (Homo sapiens). The assay can be described thus: Inhibition of Rac1-Tiam1 protein-protein interaction in human A617 cells assessed as reduction in intracellular Rac1-GTP levels at 10 uM after 4 hrs by G-LISA assay relative to control. Type of assay: cell-based.

`CCOC(=O)C1(N)C2CC(CC2c2cccc(Nc3ccc(N)cc3)c2)C1Sc1ccccc1` (racemic): in assay [1], the inhibition entry is “inactive”. For the same molecule, the inhibition in assay [2] is 17.2%.

These data come from ChEMBL document CHEMBL4368883, “Identification of the first enantiopure Rac1-Tiam1 protein-protein interaction inhibitor and its optimized synthesis via phosphine free remote group directed hydroarylation” (Medchemcomm, 2019).
